# Source: ChEMBL document CHEMBL5463727, “Data for DCP probe SGK3-PROTAC1” (2023)
# Experiments:
# Conditions in all cases: Compound concentration 1.0 uM
# [1] = target: Aurora kinase A (Homo sapiens) (UniProt O14965); assay: % Activity remaining of Aurora A in the Dundee kinase panel at 1.0 µM
# [2] = target: Serine/threonine-protein kinase BRSK1 (Homo sapiens) (UniProt Q8TDC3); assay: % Activity remaining of BRSK1 in the Dundee kinase panel at 1.0 µM
# [3] = target: Serine/threonine-protein kinase BRSK2 (Homo sapiens) (UniProt Q8IWQ3); assay: % Activity remaining of BRSK2 in the Dundee kinase panel at 1.0 µM
# [4] = target: Tyrosine-protein kinase BTK (Homo sapiens) (UniProt Q06187); assay: % Activity remaining of BTK in the Dundee kinase panel at 1.0 µM
# [5] = target: Calcium/calmodulin-dependent protein kinase type 1 (Homo sapiens) (UniProt Q14012); assay: % Activity remaining of CAMK1 in the Dundee kinase panel at 1.0 µM
# [6] = target: Casein kinase II subunit alpha (Homo sapiens) (UniProt P68400); assay: % Activity remaining of CK2 in the Dundee kinase panel at 1.0 µM
# [7] = target: Dual specificity protein kinase CLK2 (Homo sapiens) (UniProt P49760); assay: % Activity remaining of CLK2 in the Dundee kinase panel at 1.0 µM
# [8] = target: Dual specificity tyrosine-phosphorylation-regulated kinase 3 (Homo sapiens) (UniProt O43781); assay: % Activity remaining of DYRK3 in the Dundee kinase panel at 1.0 µM
# [9] = target: Ephrin type-B receptor 1 (Homo sapiens) (UniProt P54762); assay: % Activity remaining of EPH-B1 in the Dundee kinase panel at 1.0 µM
# Chain of Ephrin type-B receptor 1 (Homo sapiens) (P54762 whole entry): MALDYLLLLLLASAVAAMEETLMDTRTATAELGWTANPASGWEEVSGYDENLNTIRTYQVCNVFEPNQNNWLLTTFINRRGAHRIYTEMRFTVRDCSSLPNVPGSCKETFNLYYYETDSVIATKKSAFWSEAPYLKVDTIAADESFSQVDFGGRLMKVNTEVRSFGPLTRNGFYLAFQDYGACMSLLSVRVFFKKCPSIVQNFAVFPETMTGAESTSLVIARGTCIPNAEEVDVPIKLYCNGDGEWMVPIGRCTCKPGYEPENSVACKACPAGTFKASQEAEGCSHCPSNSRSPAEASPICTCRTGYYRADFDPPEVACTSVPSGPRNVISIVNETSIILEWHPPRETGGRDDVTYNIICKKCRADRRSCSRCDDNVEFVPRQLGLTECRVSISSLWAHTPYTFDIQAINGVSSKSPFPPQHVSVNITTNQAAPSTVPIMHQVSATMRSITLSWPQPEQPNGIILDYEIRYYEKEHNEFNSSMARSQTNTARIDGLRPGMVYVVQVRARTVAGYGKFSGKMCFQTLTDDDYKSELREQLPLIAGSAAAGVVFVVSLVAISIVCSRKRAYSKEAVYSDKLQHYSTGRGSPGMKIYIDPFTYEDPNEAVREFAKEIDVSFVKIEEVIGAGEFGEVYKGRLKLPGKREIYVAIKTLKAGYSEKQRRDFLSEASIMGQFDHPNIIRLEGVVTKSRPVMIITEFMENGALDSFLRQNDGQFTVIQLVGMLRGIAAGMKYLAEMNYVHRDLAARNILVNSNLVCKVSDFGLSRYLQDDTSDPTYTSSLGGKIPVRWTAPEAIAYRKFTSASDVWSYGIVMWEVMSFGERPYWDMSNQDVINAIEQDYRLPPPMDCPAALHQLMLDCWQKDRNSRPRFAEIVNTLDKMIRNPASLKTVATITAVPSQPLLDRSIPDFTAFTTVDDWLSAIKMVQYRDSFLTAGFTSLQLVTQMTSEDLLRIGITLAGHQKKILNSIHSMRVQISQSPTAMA
# [10] = target: Mitogen-activated protein kinase 1 (Homo sapiens) (UniProt P28482); assay: % Activity remaining of ERK2 in the Dundee kinase panel at 1.0 µM
# [11] = target: Mitogen-activated protein kinase 7 (Homo sapiens) (UniProt Q13164); assay: % Activity remaining of ERK5 in the Dundee kinase panel at 1.0 µM
# [12] = target: Glycogen synthase kinase-3 beta (Homo sapiens) (UniProt P49841); assay: % Activity remaining of GSK3 beta in the Dundee kinase panel at 1.0 µM
# [13] = target: Receptor tyrosine-protein kinase erbB-4 (Homo sapiens) (UniProt Q15303); assay: % Activity remaining of HER4 in the Dundee kinase panel at 1.0 µM
# [14] = target: Inhibitor of nuclear factor kappa-B kinase subunit epsilon (Homo sapiens) (UniProt Q14164); assay: % Activity remaining of IKK epsilon in the Dundee kinase panel at 1.0 µM
# [15] = target: Mitogen-activated protein kinase 9 (Homo sapiens) (UniProt P45984); assay: % Activity remaining of JNK2 in the Dundee kinase panel at 1.0 µM
# [16] = target: Mitogen-activated protein kinase 10 (Homo sapiens) (UniProt P53779); assay: % Activity remaining of JNK3 in the Dundee kinase panel at 1.0 µM
# [17] = target: Serine/threonine-protein kinase STK11 (Homo sapiens) (UniProt Q15831); assay: % Activity remaining of LKB1 in the Dundee kinase panel at 1.0 µM
# [18] = target: MAP kinase-activated protein kinase 3 (Homo sapiens) (UniProt Q16644); assay: % Activity remaining of MAPKAP-K3 in the Dundee kinase panel at 1.0 µM
# Chain of MAP kinase-activated protein kinase 3 (Homo sapiens) (Q16644 whole entry, looked up): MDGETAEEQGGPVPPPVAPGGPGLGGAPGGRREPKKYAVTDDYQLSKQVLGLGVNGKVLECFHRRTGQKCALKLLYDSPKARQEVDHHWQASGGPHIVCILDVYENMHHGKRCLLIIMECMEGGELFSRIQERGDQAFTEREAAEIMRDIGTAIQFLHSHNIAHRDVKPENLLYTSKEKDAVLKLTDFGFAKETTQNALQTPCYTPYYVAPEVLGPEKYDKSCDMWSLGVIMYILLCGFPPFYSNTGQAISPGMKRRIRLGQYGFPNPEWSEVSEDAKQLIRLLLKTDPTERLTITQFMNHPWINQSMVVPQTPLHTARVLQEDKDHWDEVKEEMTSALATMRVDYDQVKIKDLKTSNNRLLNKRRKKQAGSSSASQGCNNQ
# [19] = target: Serine/threonine-protein kinase MARK1 (Homo sapiens) (UniProt Q9P0L2); assay: % Activity remaining of MARK1 in the Dundee kinase panel at 1.0 µM
# [20] = target: Serine/threonine-protein kinase MARK2 (Homo sapiens) (UniProt Q7KZI7); assay: % Activity remaining of MARK2 in the Dundee kinase panel at 1.0 µM
# [21] = target: MAP/microtubule affinity-regulating kinase 4 (Homo sapiens) (UniProt Q96L34); assay: % Activity remaining of MARK4 in the Dundee kinase panel at 1.0 µM
# [22] = target: Maternal embryonic leucine zipper kinase (Homo sapiens) (UniProt Q14680); assay: % Activity remaining of MELK in the Dundee kinase panel at 1.0 µM
# [23] = target: Dual specificity mitogen-activated protein kinase kinase 1 (Homo sapiens) (UniProt Q02750); assay: % Activity remaining of MKK1 in the Dundee kinase panel at 1.0 µM
# Chain of Dual specificity mitogen-activated protein kinase kinase 1 (Homo sapiens) (Q02750 whole entry): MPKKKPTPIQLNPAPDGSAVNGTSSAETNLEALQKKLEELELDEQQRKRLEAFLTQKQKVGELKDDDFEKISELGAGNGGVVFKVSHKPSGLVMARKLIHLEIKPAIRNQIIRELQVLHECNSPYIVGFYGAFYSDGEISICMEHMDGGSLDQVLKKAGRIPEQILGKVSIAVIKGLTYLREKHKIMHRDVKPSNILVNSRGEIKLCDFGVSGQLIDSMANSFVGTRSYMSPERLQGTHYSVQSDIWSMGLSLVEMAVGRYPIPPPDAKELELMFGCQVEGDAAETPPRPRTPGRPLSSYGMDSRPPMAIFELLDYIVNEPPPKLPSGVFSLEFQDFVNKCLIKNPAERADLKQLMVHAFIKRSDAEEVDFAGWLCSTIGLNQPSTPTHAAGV
# [24] = target: Mitogen-activated protein kinase kinase kinase 9 (Homo sapiens) (UniProt P80192); assay: % Activity remaining of MLK1 in the Dundee kinase panel at 1.0 µM
# Chain of Mitogen-activated protein kinase kinase kinase 9 (Homo sapiens) (P80192 whole entry, looked up): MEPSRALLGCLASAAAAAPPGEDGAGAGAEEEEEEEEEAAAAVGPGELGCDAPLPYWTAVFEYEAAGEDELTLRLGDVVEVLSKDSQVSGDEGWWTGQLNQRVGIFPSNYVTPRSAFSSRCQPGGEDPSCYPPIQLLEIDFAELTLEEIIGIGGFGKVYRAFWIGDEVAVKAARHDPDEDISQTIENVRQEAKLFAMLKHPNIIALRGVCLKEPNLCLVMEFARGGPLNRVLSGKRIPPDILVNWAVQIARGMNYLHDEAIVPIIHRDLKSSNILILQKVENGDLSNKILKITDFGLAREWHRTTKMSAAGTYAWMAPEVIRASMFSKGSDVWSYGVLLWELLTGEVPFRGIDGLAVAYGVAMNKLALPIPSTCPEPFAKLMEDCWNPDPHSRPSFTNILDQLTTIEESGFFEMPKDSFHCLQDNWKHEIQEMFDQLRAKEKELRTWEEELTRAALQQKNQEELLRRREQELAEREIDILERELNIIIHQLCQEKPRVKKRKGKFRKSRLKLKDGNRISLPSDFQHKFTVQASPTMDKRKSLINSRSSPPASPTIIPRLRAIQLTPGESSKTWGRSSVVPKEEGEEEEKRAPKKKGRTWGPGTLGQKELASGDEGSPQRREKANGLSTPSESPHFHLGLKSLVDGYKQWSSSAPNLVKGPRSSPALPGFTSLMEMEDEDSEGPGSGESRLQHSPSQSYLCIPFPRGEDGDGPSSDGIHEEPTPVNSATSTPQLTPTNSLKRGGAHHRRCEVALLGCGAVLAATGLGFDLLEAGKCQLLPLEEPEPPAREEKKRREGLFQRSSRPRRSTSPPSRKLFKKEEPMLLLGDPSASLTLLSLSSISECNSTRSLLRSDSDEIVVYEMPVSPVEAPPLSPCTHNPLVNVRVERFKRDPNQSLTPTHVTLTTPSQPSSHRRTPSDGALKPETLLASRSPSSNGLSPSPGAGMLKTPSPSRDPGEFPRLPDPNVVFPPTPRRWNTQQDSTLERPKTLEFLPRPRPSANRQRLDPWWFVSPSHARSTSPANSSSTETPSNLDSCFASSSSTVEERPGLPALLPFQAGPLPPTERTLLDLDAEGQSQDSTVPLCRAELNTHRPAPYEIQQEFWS
# [25] = target: MAP kinase-interacting serine/threonine-protein kinase 1 (Homo sapiens) (UniProt Q9BUB5); assay: % Activity remaining of MNK1 in the Dundee kinase panel at 1.0 µM
# [26] = target: Serine/threonine-protein kinase 16 (Homo sapiens) (UniProt O75716); assay: % Activity remaining of MPSK1 in the Dundee kinase panel at 1.0 µM
# Chain of Serine/threonine-protein kinase 16 (Homo sapiens) (O75716 whole entry): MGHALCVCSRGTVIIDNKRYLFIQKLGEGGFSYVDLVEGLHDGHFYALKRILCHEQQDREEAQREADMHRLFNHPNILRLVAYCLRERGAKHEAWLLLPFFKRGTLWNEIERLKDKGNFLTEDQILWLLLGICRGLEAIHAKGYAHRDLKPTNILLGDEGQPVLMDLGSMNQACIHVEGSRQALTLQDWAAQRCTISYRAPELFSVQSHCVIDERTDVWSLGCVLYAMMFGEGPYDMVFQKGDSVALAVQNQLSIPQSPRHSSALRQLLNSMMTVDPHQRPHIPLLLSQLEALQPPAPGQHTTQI
# [27] = target: Mitogen-activated protein kinase 14 (Homo sapiens) (UniProt Q16539); assay: % Activity remaining of p38 alpha MAPK in the Dundee kinase panel at 1.0 µM
# [28] = target: Mitogen-activated protein kinase 12 (Homo sapiens) (UniProt P53778); assay: % Activity remaining of p38 gamma MAPK in the Dundee kinase panel at 1.0 µM
# Chain of Mitogen-activated protein kinase 12 (Homo sapiens) (P53778 whole entry): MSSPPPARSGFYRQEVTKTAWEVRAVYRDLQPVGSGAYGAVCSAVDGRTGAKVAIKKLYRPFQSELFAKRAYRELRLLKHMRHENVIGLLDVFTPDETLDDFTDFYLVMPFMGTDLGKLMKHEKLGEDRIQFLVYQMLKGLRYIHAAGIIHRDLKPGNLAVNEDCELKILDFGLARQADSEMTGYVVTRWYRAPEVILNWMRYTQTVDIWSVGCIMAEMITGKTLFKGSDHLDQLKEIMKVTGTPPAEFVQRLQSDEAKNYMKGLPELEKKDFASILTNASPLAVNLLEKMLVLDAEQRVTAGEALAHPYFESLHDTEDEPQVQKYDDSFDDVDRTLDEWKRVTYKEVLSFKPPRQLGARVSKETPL
# [29] = target: Protein kinase C gamma type (Homo sapiens) (UniProt P05129); assay: % Activity remaining of PKC gamma in the Dundee kinase panel at 1.0 µM
# [30] = target: Ribosomal protein S6 kinase alpha-1 (Homo sapiens) (UniProt Q15418); assay: % Activity remaining of RSK1 in the Dundee kinase panel at 1.0 µM
# Chain of Ribosomal protein S6 kinase alpha-1 (Homo sapiens) (Q15418 whole entry): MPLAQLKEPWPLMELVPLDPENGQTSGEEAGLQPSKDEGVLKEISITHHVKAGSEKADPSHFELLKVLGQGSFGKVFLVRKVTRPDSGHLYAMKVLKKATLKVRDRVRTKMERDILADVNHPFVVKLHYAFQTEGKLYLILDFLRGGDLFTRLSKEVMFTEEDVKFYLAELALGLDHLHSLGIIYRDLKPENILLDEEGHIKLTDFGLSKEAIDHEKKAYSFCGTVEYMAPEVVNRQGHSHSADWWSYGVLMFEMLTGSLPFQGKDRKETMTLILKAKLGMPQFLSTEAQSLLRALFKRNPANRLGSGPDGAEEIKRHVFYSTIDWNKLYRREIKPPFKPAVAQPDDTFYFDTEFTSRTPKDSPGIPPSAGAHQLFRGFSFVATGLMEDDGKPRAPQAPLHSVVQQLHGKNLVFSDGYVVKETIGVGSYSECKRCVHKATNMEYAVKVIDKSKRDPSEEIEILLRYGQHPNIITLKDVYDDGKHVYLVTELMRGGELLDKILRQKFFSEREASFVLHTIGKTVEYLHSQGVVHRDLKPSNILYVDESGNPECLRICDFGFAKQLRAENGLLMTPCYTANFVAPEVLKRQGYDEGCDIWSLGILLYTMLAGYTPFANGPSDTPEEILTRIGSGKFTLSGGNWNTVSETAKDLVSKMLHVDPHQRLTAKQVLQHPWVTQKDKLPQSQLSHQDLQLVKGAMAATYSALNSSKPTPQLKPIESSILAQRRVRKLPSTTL
# [31] = target: Mitogen-activated protein kinase kinase kinase 7 (Homo sapiens) (UniProt O43318); assay: % Activity remaining of TAK1 in the Dundee kinase panel at 1.0 µM
# [32] = target: Serine/threonine-protein kinase TAO1 (Homo sapiens) (UniProt Q7L7X3); assay: % Activity remaining of TAO1 in the Dundee kinase panel at 1.0 µM
# [33] = target: Serine/threonine-protein kinase TBK1 (Homo sapiens) (UniProt Q9UHD2); assay: % Activity remaining of TBK1 in the Dundee kinase panel at 1.0 µM
# [34] = target: Testis-specific serine/threonine-protein kinase 1 (Homo sapiens) (UniProt Q9BXA7); assay: % Activity remaining of TSSK1 in the Dundee kinase panel at 1.0 µM
# [35] = target: Tau-tubulin kinase 1 (Homo sapiens) (UniProt Q5TCY1); assay: % Activity remaining of TTBK1 in the Dundee kinase panel at 1.0 µM
# [36] = target: Tau-tubulin kinase 2 (Homo sapiens) (UniProt Q6IQ55); assay: % Activity remaining of TTBK2 in the Dundee kinase panel at 1.0 µM
# [37] = target: Tyrosine-protein kinase Yes (Homo sapiens) (UniProt P07947); assay: % Activity remaining of YES1 in the Dundee kinase panel at 1.0 µM
# [38] = target: Mitogen-activated protein kinase kinase kinase kinase 2 (Homo sapiens) (UniProt Q12851); assay: % Activity remaining of GCK in the Dundee kinase panel at 1.0 µM
# [39] = target: Ephrin type-B receptor 2 (Homo sapiens) (UniProt P29323); assay: % Activity remaining of EPH-B2 in the Dundee kinase panel at 1.0 µM
# Chain of Aurora kinase A (Homo sapiens) (O14965 whole entry): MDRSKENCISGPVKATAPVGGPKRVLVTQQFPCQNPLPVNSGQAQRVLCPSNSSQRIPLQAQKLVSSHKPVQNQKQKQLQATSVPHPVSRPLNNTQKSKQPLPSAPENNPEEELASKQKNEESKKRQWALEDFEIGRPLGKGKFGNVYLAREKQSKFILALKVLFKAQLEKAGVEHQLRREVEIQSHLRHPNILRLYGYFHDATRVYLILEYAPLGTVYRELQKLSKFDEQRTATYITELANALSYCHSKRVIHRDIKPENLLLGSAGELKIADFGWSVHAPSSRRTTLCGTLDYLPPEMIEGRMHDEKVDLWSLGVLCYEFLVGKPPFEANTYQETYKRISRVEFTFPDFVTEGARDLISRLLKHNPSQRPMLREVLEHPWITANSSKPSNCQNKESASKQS
% Activity remaining [1] [%],% Activity remaining [2] [%],% Activity remaining [3] [%],% Activity remaining [4] [%],% Activity remaining [5] [%],% Activity remaining [6] [%],% Activity remaining [7] [%],% Activity remaining [8] [%],% Activity remaining [9] [%],% Activity remaining [10] [%],% Activity remaining [11] [%],% Activity remaining [12] [%],% Activity remaining [13] [%],% Activity remaining [14] [%],% Activity remaining [15] [%],% Activity remaining [16] [%],% Activity remaining [17] [%],% Activity remaining [18] [%],% Activity remaining [19] [%],% Activity remaining [20] [%],Compound,further results
91.4,106,101,90.6,105,96.4,84.8,104,108,95.2,108,106,103,99,109,82.5,112,77,93,112,Cc1ccc(F)c(S(=O)(=O)Nc2ccc(-c3nc(OC[C@H]4CN(CCCCCCOCCOCCOCC(=O)N[C@H](C(=O)N5C[C@@H](O)C[C@H]5C(=O)NCc5ccc(-c6scnc6C)cc5)C(C)(C)C)CCO4)c4cn[nH]c4n3)cc2)c1,% Activity remaining [21]: 100%; % Activity remaining [22]: 99.5%; % Activity remaining [23]: 102%; % Activity remaining [24]: 93.9%; % Activity remaining [25]: 103%; % Activity remaining [26]: 139%; % Activity remaining [27]: 109%; % Activity remaining [28]: 127%; % Activity remaining [29]: 99.9%; % Activity remaining [30]: 90.2%; % Activity remaining [31]: 107%; % Activity remaining [32]: 105%; % Activity remaining [33]: 111%; % Activity remaining [34]: 113%; % Activity remaining [35]: 113%; % Activity remaining [36]: 89.7%; % Activity remaining [37]: 105%; % Activity remaining [38]: 96.3%; % Activity remaining [39]: 97.4%
90.3,108,97.2,96.9,86.3,90.2,104,102,99.9,104,102,108,92,108,117,92.1,105,79,99.4,102,Cc1ccc(F)c(S(=O)(=O)Nc2ccc(-c3nc(OC[C@H]4CN(CCCCCCOCCOCCOCC(=O)N[C@H](C(=O)N5C[C@H](O)C[C@H]5C(=O)NCc5ccc(-c6scnc6C)cc5)C(C)(C)C)CCO4)c4cn[nH]c4n3)cc2)c1,% Activity remaining [21]: 105%; % Activity remaining [22]: 91.5%; % Activity remaining [23]: 106%; % Activity remaining [24]: 81.9%; % Activity remaining [25]: 108%; % Activity remaining [26]: 127%; % Activity remaining [27]: 125%; % Activity remaining [28]: 107%; % Activity remaining [29]: 103%; % Activity remaining [30]: 83.2%; % Activity remaining [31]: 108%; % Activity remaining [32]: 99%; % Activity remaining [33]: 93.4%; % Activity remaining [34]: 115%; % Activity remaining [35]: 105%; % Activity remaining [36]: 93.5%; % Activity remaining [37]: 108%; % Activity remaining [38]: 99%; % Activity remaining [39]: 93.9%
